Reference: paper PMC2248166, “Quantitative peptide binding motifs for 19 human and mouse MHC class I molecules derived using positional scanning combinatorial peptide libraries” (Immunome Research, 2008)
Where a SMILES comes first, the peptide text is derived from it.

Target: HLA B*1503 (Homo sapiens, UniProt P01889, A329T/A93T/A95T/C349S/D201E/D98Y/E187L/E204Q/K202T/N87E/Q94N/R155S/R180L/S121R/S35A/V306I/V36M/Y140S/Y91S)
Experiment: biochemical
Format: binding

Row | Compound | IC50
1 | CC[C@H](C)[C@H](NC(=O)[C@H](Cc1c[nH]cn1)NC(=O)[C@@H](NC(=O)[C@H](Cc1ccc(O)cc1)NC(=O)[C@H](CCC(N)=O)NC(=O)[C@@H](N)CC(C)C)C(C)C)C(=O)N[C@@H](CC(N)=O)C(=O)N[C@@H](CCC(=O)O)C(=O)N[C@@H](CC(C)C)C(=O)O [3102.1187] (H-LQYVHINEL-OH) | 3.7 nM
2 | CSCC[C@H](NC(=O)[C@@H](N)CCCCN)C(=O)N[C@H](C(=O)N[C@@H](CCCNC(=N)N)C(=O)N[C@H](C(=O)N[C@@H](Cc1ccccc1)C(=O)N[C@@H](CC(N)=O)C(=O)N[C@@H](CCCCN)C(=O)N[C@@H](Cc1ccccc1)C(=O)O)C(C)C)[C@@H](C)O [3102.1188] (H-KMTRVFNKF-OH) | 0.43 nM
3 | CC(C)C[C@H](NC(=O)[C@H](CC(C)C)NC(=O)[C@@H](NC(=O)[C@H](CO)NC(=O)[C@H](CO)NC(=O)[C@H](CCCCN)NC(=O)[C@@H](N)CCCCN)[C@@H](C)O)C(=O)N[C@H](C(=O)N[C@@H](Cc1ccccc1)C(=O)O)[C@@H](C)O [3102.1189] (H-KKSSTLLTF-OH) | 0.36 nM
4 | CC(C)[C@H](NC(=O)[C@@H](NC(=O)[C@H](CC(=O)O)NC(=O)[C@H](CO)NC(=O)[C@H](CCC(N)=O)NC(=O)[C@H](CO)NC(=O)[C@H](CCCCN)NC(=O)[C@H](C)N)[C@@H](C)O)C(=O)N[C@@H](Cc1ccccc1)C(=O)O [3102.1191] (H-AKSQSDTVF-OH) | 0.16 nM
5 | CC[C@H](C)[C@H](NC(=O)[C@H](Cc1ccc(O)cc1)NC(=O)[C@H](CO)NC(=O)[C@@H]1CCCN1C(=O)[C@H](Cc1ccc(O)cc1)NC(=O)[C@H](CCSC)NC(=O)[C@@H](N)CO)C(=O)N[C@@H](CCC(=O)O)C(=O)N[C@@H](Cc1ccccc1)C(=O)O [3102.1196] (H-SMYPSYIEF-OH) | 0.11 nM
6 | CC[C@H](C)[C@H](N)C(=O)N[C@@H](CCCCN)C(=O)N[C@@H](Cc1ccccc1)C(=O)N[C@@H](C)C(=O)N[C@@H](C)C(=O)NCC(=O)N[C@H](C(=O)N[C@H](C(=O)N[C@H](C(=O)O)[C@@H](C)CC)[C@@H](C)CC)[C@@H](C)CC [3102.1198] (H-IKFAAGIII-OH) | 16 nM
7 | CC[C@H](C)[C@H](NC(=O)[C@@H](NC(=O)[C@H](Cc1ccccc1)NC(=O)[C@H](CCSC)NC(=O)[C@@H](NC(=O)[C@H](CCCCN)NC(=O)[C@@H](N)[C@@H](C)O)C(C)C)C(C)C)C(=O)N[C@@H](CCCNC(=N)N)C(=O)N[C@@H](Cc1ccccc1)C(=O)O [3102.1199] (H-TKVMFVIRF-OH) | 31 nM
8 | CC[C@H](C)[C@H](NC(=O)[C@H](CCCCN)NC(=O)[C@@H](N)CCSC)C(=O)N[C@H](C(=O)N[C@@H](CCCNC(=N)N)C(=O)N1CCC[C@H]1C(=O)N[C@@H](CCCNC(=N)N)C(=O)N[C@@H](Cc1c[nH]cn1)C(=O)N[C@@H](Cc1ccccc1)C(=O)O)[C@@H](C)O [3102.1200] (H-MKITRPRHF-OH) | 1 nM
9 | CC[C@H](C)[C@H](N)C(=O)N[C@@H](CCC(=O)O)C(=O)N[C@H](C(=O)N[C@@H](CO)C(=O)N[C@@H](CO)C(=O)N[C@@H](CC(=O)O)C(=O)N[C@H](C(=O)N[C@@H](CO)C(=O)N[C@@H](Cc1ccccc1)C(=O)O)[C@@H](C)CC)C(C)C [3102.1201] (H-IEVSSDISF-OH) | 9.7 nM
10 | CC[C@H](C)[C@H](NC(=O)[C@H](Cc1c[nH]cn1)NC(=O)[C@H](CC(N)=O)NC(=O)[C@H](CCCCN)NC(=O)[C@@H](N)CCCNC(=N)N)C(=O)N[C@@H](Cc1ccc(O)cc1)C(=O)N[C@@H](CC(N)=O)C(=O)N[C@@H](CO)C(=O)N[C@@H](Cc1ccccc1)C(=O)O [3102.1203] (H-RKNHIYNSF-OH) | 0.13 nM
11 | CC(C)C[C@H](NC(=O)[C@@H](N)Cc1ccccc1)C(=O)N[C@@H](CO)C(=O)N[C@@H](CC(N)=O)C(=O)N[C@@H](CS)C(=O)N[C@@H](CCC(=O)O)C(=O)N[C@@H](CCCCN)C(=O)N[C@@H](CCC(N)=O)C(=O)N[C@@H](Cc1ccccc1)C(=O)O [3102.1206] (H-FLSNCEKQF-OH) | 21 nM
12 | CC[C@H](C)[C@H](NC(=O)[C@H](CO)NC(=O)[C@@H](NC(=O)[C@H](Cc1ccccc1)NC(=O)CNC(=O)[C@@H](NC(=O)[C@@H](NC(=O)[C@H](CCCCN)NC(=O)[C@@H](N)CCCCN)C(C)C)[C@@H](C)CC)C(C)C)C(=O)O [3102.1208] (H-KKVIGFVSI-OH) | 7.5 nM
13 | CC[C@H](C)[C@H](N)C(=O)N[C@@H](CCC(N)=O)C(=O)N[C@@H](CCCNC(=N)N)C(=O)N[C@H](C(=O)N[C@@H](Cc1ccc(O)cc1)C(=O)N[C@@H](CO)C(=O)N[C@@H](CO)C(=O)N[C@@H](CO)C(=O)N[C@H](C(=O)O)[C@@H](C)CC)[C@@H](C)O [3102.1209] (H-IQRTYSSSI-OH) | 0.83 nM
14 | CSCC[C@H](NC(=O)[C@H](CCSC)NC(=O)[C@H](CCC(=O)O)NC(=O)[C@H](C)N)C(=O)N[C@@H](C)C(=O)N1CCC[C@H]1C(=O)N[C@@H](CO)C(=O)N[C@@H](CCSC)C(=O)N[C@@H](Cc1ccccc1)C(=O)O [3102.1211] (H-AEMMAPSMF-OH) | 17 nM
15 | CC(C)C[C@H](N)C(=O)N[C@@H](CCC(=O)O)C(=O)N[C@@H](Cc1ccccc1)C(=O)N[C@@H](CC(N)=O)C(=O)N[C@H](C(=O)N1CCC[C@H]1C(=O)N[C@@H](Cc1ccccc1)C(=O)N[C@H](C(=O)N[C@@H](Cc1ccccc1)C(=O)O)C(C)C)[C@@H](C)O [3102.1212] (H-LEFNTPFVF-OH) | 10 nM
16 | CSCC[C@H](NC(=O)[C@@H](NC(=O)[C@H](CO)NC(=O)[C@@H](NC(=O)[C@H](Cc1ccc(O)cc1)NC(=O)[C@@H](NC(=O)[C@H](Cc1ccccc1)NC(=O)[C@H](CCCCN)NC(=O)[C@@H](N)CO)C(C)C)C(C)C)C(C)C)C(=O)O [3102.1213] (H-SKFVYVSVM-OH) | 1.6 nM
17 | CC[C@H](C)[C@H](N)C(=O)N[C@@H](CC(C)C)C(=O)N[C@@H](C)C(=O)N1CCC[C@H]1C(=O)N[C@@H](CC(N)=O)C(=O)N1CCC[C@H]1C(=O)N[C@@H](CC(N)=O)C(=O)N[C@@H](CCCNC(=N)N)C(=O)N[C@@H](Cc1ccccc1)C(=O)O [3102.1221] (H-ILAPNPNRF-OH) | 26 nM
18 | CC[C@H](C)[C@H](NC(=O)[C@H](CO)NC(=O)[C@H](C)NC(=O)[C@H](Cc1ccccc1)NC(=O)[C@H](CO)NC(=O)CNC(=O)[C@H](CO)NC(=O)[C@@H](N)Cc1ccccc1)C(=O)N[C@@H](Cc1ccccc1)C(=O)O [3102.1222] (H-FSGSFASIF-OH) | 0.32 nM
19 | CSCC[C@H](NC(=O)[C@@H](N)CS)C(=O)N[C@@H](CO)C(=O)N[C@@H](CC(N)=O)C(=O)N[C@@H](CO)C(=O)N[C@@H](CCCNC(=N)N)C(=O)N[C@@H](CC(C)C)C(=O)N[C@@H](CO)C(=O)N[C@@H](Cc1ccccc1)C(=O)O [3102.1225] (H-CMSNSRLSF-OH) | 1 nM
20 | CC[C@H](C)[C@H](N)C(=O)N[C@@H](CO)C(=O)N[C@H](C(=O)N[C@@H](Cc1ccc(O)cc1)C(=O)N1CCC[C@H]1C(=O)NCC(=O)N[C@@H](CC(N)=O)C(=O)N[C@H](C(=O)N[C@@H](Cc1ccccc1)C(=O)O)[C@@H](C)O)[C@@H](C)O [3102.1229] (H-ISTYPGNTF-OH) | 0.48 nM
21 | CC(C)C[C@H](NC(=O)[C@H](CO)NC(=O)[C@H](CC(C)C)NC(=O)CNC(=O)[C@H](CS)NC(=O)[C@H](CO)NC(=O)[C@H](Cc1ccccc1)NC(=O)[C@H](CCCCN)NC(=O)[C@@H](N)Cc1ccc(O)cc1)C(=O)O [3102.1230] (H-YKFSCGLSL-OH) | 0.13 nM
22 | CC(C)C[C@H](NC(=O)[C@H](Cc1ccc(O)cc1)NC(=O)[C@H](CCC(N)=O)NC(=O)[C@H](Cc1ccccc1)NC(=O)[C@H](CCC(N)=O)NC(=O)[C@@H]1CCCN1C(=O)[C@H](CCC(N)=O)NC(=O)[C@H](CCC(N)=O)NC(=O)[C@@H](N)Cc1ccccc1)C(=O)O [3102.1233] (H-FQQPQFQYL-OH) | 23 nM
